These molecules were tested against PIK3CG (human) (UniProt P48736) (assay: Inhibition of PIK3CG Kinase Activity).
Sequence of PIK3CG (human) (P48736 whole entry, looked up): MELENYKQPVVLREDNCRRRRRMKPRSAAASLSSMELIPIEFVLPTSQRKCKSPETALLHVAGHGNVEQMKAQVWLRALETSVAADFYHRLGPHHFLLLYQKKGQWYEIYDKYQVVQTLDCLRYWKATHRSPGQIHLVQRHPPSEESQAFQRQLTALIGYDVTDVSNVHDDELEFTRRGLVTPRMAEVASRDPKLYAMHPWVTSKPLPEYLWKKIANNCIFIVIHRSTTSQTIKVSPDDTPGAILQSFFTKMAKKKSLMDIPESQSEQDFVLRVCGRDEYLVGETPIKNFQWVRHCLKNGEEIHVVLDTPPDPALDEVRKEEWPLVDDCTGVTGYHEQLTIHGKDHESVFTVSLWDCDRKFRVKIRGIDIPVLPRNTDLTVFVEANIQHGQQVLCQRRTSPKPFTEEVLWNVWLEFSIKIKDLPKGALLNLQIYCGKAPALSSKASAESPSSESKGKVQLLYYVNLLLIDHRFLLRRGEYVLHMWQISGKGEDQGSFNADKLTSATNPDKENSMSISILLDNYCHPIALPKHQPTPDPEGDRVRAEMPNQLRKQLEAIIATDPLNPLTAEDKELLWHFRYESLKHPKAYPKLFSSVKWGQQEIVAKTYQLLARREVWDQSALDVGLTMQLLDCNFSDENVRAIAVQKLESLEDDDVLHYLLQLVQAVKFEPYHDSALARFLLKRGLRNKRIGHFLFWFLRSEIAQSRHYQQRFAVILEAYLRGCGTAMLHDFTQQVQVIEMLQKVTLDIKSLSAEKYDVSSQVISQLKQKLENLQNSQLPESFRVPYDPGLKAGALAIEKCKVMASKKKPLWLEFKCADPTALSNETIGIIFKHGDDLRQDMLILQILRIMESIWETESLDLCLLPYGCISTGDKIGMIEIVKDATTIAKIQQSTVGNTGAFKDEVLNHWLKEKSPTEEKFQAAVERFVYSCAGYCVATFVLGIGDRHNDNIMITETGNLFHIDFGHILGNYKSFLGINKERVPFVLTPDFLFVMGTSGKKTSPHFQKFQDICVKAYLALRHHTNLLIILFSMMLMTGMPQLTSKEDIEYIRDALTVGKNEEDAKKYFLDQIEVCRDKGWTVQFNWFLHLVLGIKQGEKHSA
Cn1cc(CNC(=O)Nc2nc3c(s2)-c2c(cnn2-c2ccccc2C(F)(F)F)C3)cn1 was tested, and the IC50 was < 800 nM. With CCc1cc(CC)n(CCNC(=O)Nc2nc3c(s2)-c2c(cnn2-c2ccccc2C(F)(F)F)C3)n1 the IC50 was < 800 nM. With CC(=O)NCC1CCCN(C(=O)Nc2nc3c(s2)-c2c(cnn2-c2ccccc2Cl)C3)C1 (stereo unspecified) the IC50 was < 800 nM. CC(C)(C)OC(=O)N1CCC[C@H]1CNC(=O)Nc1nc2c(s1)-c1c(cnn1-c1ccccc1C(F)(F)F)C2 was tested, and the IC50 was < 800 nM. CC(C)c1noc(CCNC(=O)Nc2nc3c(s2)-c2c(cnn2-c2ccccc2C(F)(F)F)C3)n1 was tested, and the IC50 was < 800 nM. With CCN1CCC2(CCN(C(=O)Nc3nc4c(s3)-c3c(cnn3-c3ccccc3Cl)C4)C2)C1 (stereo unspecified) the IC50 was < 800 nM. With O=C(NCc1nnc(-c2ccccc2)o1)Nc1nc2c(s1)-c1c(cnn1-c1ccccc1C(F)(F)F)C2 the IC50 was < 800 nM. For O=C(NCc1cccc(N2CCNC2=O)c1)Nc1nc2c(s1)-c1c(cnn1-c1ccccc1C(F)(F)F)C2, the IC50 was < 800 nM. CC(C)(C)OC(=O)CCNC(=O)Nc1nc2c(s1)-c1c(cnn1-c1ccccc1Cl)C2 was tested, and the IC50 was < 800 nM. In the case of CC(C)c1cnc(CCNC(=O)Nc2nc3c(s2)-c2c(cnn2-c2ccccc2Cl)C3)o1, the IC50 is reported as < 800 nM. In the case of NC(=O)Nc1nc2c(s1)-c1c(cnn1-c1ccccc1C(F)(F)F)C2, the IC50 is reported as < 800 nM. Nc1cc(CCNC(=O)Nc2nc3c(s2)-c2c(cnn2-c2ccccc2C(F)(F)F)C3)nn1CC(F)(F)F was tested, and the IC50 was < 800 nM. For CN(Cc1ccco1)C(=O)Nc1nc2c(s1)-c1c(cnn1-c1ccccc1C(F)(F)F)C2, the IC50 was < 800 nM. For CN(Cc1cnn(C)c1)C(=O)Nc1nc2c(s1)-c1c(cnn1-c1ccccc1C(F)(F)F)C2, the IC50 was < 800 nM. For Cc1cc(=O)n(CCNC(=O)Nc2nc3c(s2)-c2c(cnn2-c2ccccc2C(F)(F)F)C3)[nH]1, the IC50 was < 800 nM. With CC(C)(CCn1c(=O)[nH]c2ccccc21)NC(=O)Nc1nc2c(s1)-c1c(cnn1-c1ccccc1C(F)(F)F)C2 the IC50 was < 800 nM. With O=C(Nc1nc2c(s1)-c1c(cnn1-c1ccccc1Cl)C2)N1CCCC(c2nc3ccccc3[nH]2)C1 (stereo unspecified) the IC50 was < 800 nM. For CC(C)(C)c1cc(N)n(CCNC(=O)Nc2nc3c(s2)-c2c(cnn2-c2ccccc2C(F)(F)F)C3)n1, the IC50 was < 800 nM. In the case of CCc1cnc(CCNC(=O)Nc2nc3c(s2)-c2c(cnn2-c2ccccc2Br)C3)o1, the IC50 is reported as < 800 nM. In the case of O=C(NCc1ccccc1)Nc1nc2c(s1)-c1c(cnn1-c1ccccc1C(F)(F)F)C2, the IC50 is reported as < 800 nM. CC(C)(C)n1nc(CNC(=O)Nc2nc3c(s2)-c2c(cnn2-c2ccccc2C(F)(F)F)C3)cc1N was tested, and the IC50 was < 800 nM. With O=C(Nc1nc2c(s1)-c1c(cnn1-c1ccccc1Cl)C2)N1CCC(n2cnc3ccccc32)CC1 the IC50 was < 800 nM. In the case of O=C(O)CC1(CNC(=O)Nc2nc3c(s2)-c2c(cnn2-c2ccccc2Cl)C3)CCCCC1, the IC50 is reported as < 800 nM. NC(=O)c1cccc(CNC(=O)Nc2nc3c(s2)-c2c(cnn2-c2ccccc2C(F)(F)F)C3)c1 was tested, and the IC50 was < 800 nM. In the case of CCn1nc(CCNC(=O)Nc2nc3c(s2)-c2c(cnn2-c2ccccc2C(F)(F)F)C3)cc1N, the IC50 is reported as < 800 nM. O=C(Nc1nc2c(s1)-c1c(cnn1-c1ccccc1Cl)C2)N1CCCC(C(O)c2ccccc2)C1 (stereo unspecified) was tested, and the IC50 was < 800 nM. With Cn1cccc1CCNC(=O)Nc1nc2c(s1)-c1c(cnn1-c1ccccc1Cl)C2 the IC50 was < 800 nM. With O=C(NCc1ncc[nH]1)Nc1nc2c(s1)-c1c(cnn1-c1ccccc1Cl)C2 the IC50 was < 800 nM. For CC(C)(C)n1nc(CCNC(=O)Nc2nc3c(s2)-c2c(cnn2-c2ccccc2C(F)(F)F)C3)cc1N, the IC50 was < 800 nM. For CCNC(=O)Nc1nc2c(s1)-c1c(cnn1-c1ccccc1C(F)(F)F)C2, the IC50 was < 800 nM. In the case of CC(C)n1nc(CNC(=O)Nc2nc3c(s2)-c2c(cnn2-c2ccccc2C(F)(F)F)C3)cc1N, the IC50 is reported as < 800 nM. With O=C(NCc1cc(C2CC2)n[nH]1)Nc1nc2c(s1)-c1c(cnn1-c1ccccc1Cl)C2 the IC50 was < 800 nM. CC(C)(C)c1cc(CNC(=O)Nc2nc3c(s2)-c2c(cnn2-c2ccccc2C(F)(F)F)C3)[nH]n1 was tested, and the IC50 was < 800 nM. With Cc1c[nH]c(CCNC(=O)Nc2nc3c(s2)-c2c(cnn2-c2ccccc2Cl)C3)n1 the IC50 was < 800 nM. For O=C(NCCc1ccncc1)Nc1nc2c(s1)-c1c(cnn1-c1ccccc1Cl)C2, the IC50 was < 800 nM. In the case of Cc1cc(CNC(=O)Nc2nc3c(s2)-c2c(cnn2-c2ccccc2C(F)(F)F)C3)nn1C, the IC50 is reported as < 800 nM. With O=C(NCc1ccncc1)Nc1nc2c(s1)-c1c(cnn1-c1ccccc1C(F)(F)F)C2 the IC50 was < 800 nM. With CCOC(Cn1nc(CCNC(=O)Nc2nc3c(s2)-c2c(cnn2-c2ccccc2C(F)(F)F)C3)cc1N)OCC the IC50 was < 800 nM. O=C(Nc1nc2c(s1)-c1c(cnn1-c1ccccc1Cl)C2)N1CCCCC1c1nc2ccccc2[nH]1 (stereo unspecified) was tested, and the IC50 was < 800 nM. With CCCCNC(=O)Nc1nc2c(s1)-c1c(cnn1-c1ccccc1C(F)(F)F)C2 the IC50 was < 800 nM. In the case of CCN1CCC[C@@H]1CNC(=O)Nc1nc2c(s1)-c1c(cnn1-c1ccccc1Cl)C2, the IC50 is reported as < 800 nM. For CC(C)(C)CCNC(=O)Nc1nc2c(s1)-c1c(cnn1-c1ccccc1Cl)C2, the IC50 was < 800 nM. In the case of O=C(NCCc1nc(C2CC2)no1)Nc1nc2c(s1)-c1c(cnn1-c1ccccc1C(F)(F)F)C2, the IC50 is reported as < 800 nM. With O=C(NCc1cocn1)Nc1nc2c(s1)-c1c(cnn1-c1ccccc1C(F)(F)F)C2 the IC50 was < 800 nM. In the case of O=C(NCCc1ccccn1)Nc1nc2c(s1)-c1c(cnn1-c1ccccc1Cl)C2, the IC50 is reported as < 800 nM. For O=C(NCc1cccc(N2CCNC2=O)c1)Nc1nc2c(s1)-c1c(cnn1-c1ccccc1Cl)C2, the IC50 was < 800 nM. Nc1cc(CNC(=O)Nc2nc3c(s2)-c2c(cnn2-c2ccccc2C(F)(F)F)C3)[nH]n1 was tested, and the IC50 was < 800 nM. In the case of CCCn1ccc(CNC(=O)Nc2nc3c(s2)-c2c(cnn2-c2ccccc2C(F)(F)F)C3)n1, the IC50 is reported as < 800 nM. With O=C(NCc1ccccc1-n1cccn1)Nc1nc2c(s1)-c1c(cnn1-c1ccccc1Cl)C2 the IC50 was < 800 nM. CCNC(=O)Nc1c(CCNC(=O)Nc2nc3c(s2)-c2c(cnn2-c2ccccc2C(F)(F)F)C3)cnn1C was tested, and the IC50 was < 800 nM. In the case of O=C(NCCn1nc(C(F)(F)F)cc1-c1ccco1)Nc1nc2c(s1)-c1c(cnn1-c1ccccc1C(F)(F)F)C2, the IC50 is reported as < 800 nM. For CC(C)NC(=O)Nc1nc2c(s1)-c1c(cnn1-c1ccccc1Br)C2, the IC50 was < 800 nM. For CN(C)C(=O)Nc1nc2c(s1)-c1c(cnn1-c1ccccc1Br)C2, the IC50 was < 800 nM. For CN(C)C(=O)CNC(=O)Nc1nc2c(s1)-c1c(cnn1-c1cc(Cl)ccc1Cl)C2, the IC50 was < 800 nM. For CCCn1cnc(CCNC(=O)Nc2nc3c(s2)-c2c(cnn2-c2ccccc2Br)C3)c1, the IC50 was < 800 nM. In the case of CCCNC(=O)Nc1nc2c(s1)-c1c(cnn1-c1cc(F)ccc1C(F)(F)F)C2, the IC50 is reported as < 800 nM. Cc1cc(-c2cccnc2)n(CCNC(=O)Nc2nc3c(s2)-c2c(cnn2-c2ccccc2C(F)(F)F)C3)n1 was tested, and the IC50 was < 800 nM. CCCCn1nc(CCNC(=O)Nc2nc3c(s2)-c2c(cnn2-c2ccccc2C(F)(F)F)C3)cc1N was tested, and the IC50 was < 800 nM. CCn1cnc(CCNC(=O)Nc2nc3c(s2)-c2c(cnn2-c2cc(Cl)ccc2Cl)C3)c1 was tested, and the IC50 was < 800 nM. CC(C)(C)CNC(=O)Nc1nc2c(s1)-c1c(cnn1-c1ccccc1Cl)C2 was tested, and the IC50 was < 800 nM. For O=C(NCC1CC1)Nc1nc2c(s1)-c1c(cnn1-c1ccccc1Cl)C2, the IC50 was < 800 nM. With O=C(NCCc1ccccc1)Nc1nc2c(s1)-c1c(cnn1-c1ccccc1Cl)C2 the IC50 was < 800 nM. For NC(=O)Nc1nc2c(s1)-c1c(cnn1-c1ccccc1Br)C2, the IC50 was < 800 nM. In the case of CCn1cnc(CCNC(=O)Nc2nc3c(s2)-c2c(cnn2-c2ccccc2C(F)(F)F)C3)c1, the IC50 is reported as < 800 nM. O=C(NCc1ccco1)Nc1nc2c(s1)-c1c(cnn1-c1ccccc1C(F)(F)F)C2 was tested, and the IC50 was < 800 nM. With CC(C)c1cnc(CCNC(=O)Nc2nc3c(s2)-c2c(cnn2-c2ccccc2C(F)(F)F)C3)o1 the IC50 was < 800 nM.

Reference: the Kinase Knowledgebase extract (Sharma et al. 2016)
